The target of this experiment is T1, MHlip (uncultured bacterium, UniProt D3YKV3).
T1 construct: full length, 262 residues, 28,075 Da (theoretical), C-terminal 6xHis tag (pET22b NdeI/XhoI), E. coli BL21(DE3), Ni-NTA; N-terminus MPFAH
Kind of experiment: spectrophotometric p-nitrophenol release at […] nm, initial rates, nonlinear Michaelis-Menten fit. The conditions noted are these: 20 mM Tris-HCl pH 8, 30 °C, pNPA 0-10 mM. The experiment is classed as biochemical.

T1 sequence (D3YKV3 1-262 limits assumed): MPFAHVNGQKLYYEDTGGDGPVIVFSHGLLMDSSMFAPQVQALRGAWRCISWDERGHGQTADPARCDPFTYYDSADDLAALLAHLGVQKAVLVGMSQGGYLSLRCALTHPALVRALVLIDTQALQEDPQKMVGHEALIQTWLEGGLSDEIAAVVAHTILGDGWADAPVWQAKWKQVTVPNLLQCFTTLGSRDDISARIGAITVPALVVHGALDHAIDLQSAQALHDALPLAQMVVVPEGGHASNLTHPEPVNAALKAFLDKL

For `CC(=O)Oc1ccc([N+](=O)[O-])cc1` [pNPA], the Km is recorded as 1.2~0.1 mM.

Values taken from article PMC4009859, “Novel Cold-Adapted Esterase MHlip from an Antarctic Soil Metagenome” (Biology, 2013).
